Experimental data: ChEMBL document CHEMBL1201862, “PubChem BioAssay data set” (2004)
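Five concentrations, 48 hours, 96-well plates. Abbreviation: GI50, concentration required for 50% inhibition of growth.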 The source made the active and inactive calls. Rule as the data show it: active = GI50 up to about 1.1 µM and inactive = higher. Positions of bridges follow the written chain, without caps; N, C: chain ends. Non-standard residues stand in square brackets, D forms with d. Residues, ends and D or L forms follow the SMILES beside them. *: point of attachment. PhAc = O=C(Cc1ccccc1)*

Tests used:
Assay in all cases: DTP human tumour cell line panel, 48 h
SF-539 = tested on: SF-539
SK-MEL-2 = tested on: SK-MEL-2
SNB-75 = tested on: SNB-75
U-251 = tested on: U-251
HCT-15 = tested on: HCT-15
A498 = tested on: A498
NCI-H460 = tested on: NCI-H460
EKVX = tested on: EKVX
HOP-62 = tested on: HOP-62
K562 = tested on: K562
MDA-MB-435 = tested on: MDA-MB-435
HOP-92 = tested on: HOP-92
HCC 2998 = tested on: HCC 2998
Malme-3M = tested on: Malme-3M
CAKI-1 = tested on: CAKI-1
OVCAR-4 = tested on: OVCAR-4
COLO 205 = tested on: COLO 205
MDA-N = tested on: MDA-N
BT-549 = tested on: BT-549

| Compound | GI50 (SF-539) | GI50 (SK-MEL-2) | GI50 (SNB-75) | GI50 (U-251) | GI50 (HCT-15) [µM] | GI50 (A498) | GI50 (NCI-H460) | GI50 (EKVX) | GI50 (HOP-62) | GI50 (K562) | GI50 (MDA-MB-435) | GI50 (HOP-92) | GI50 (HCC 2998) | GI50 (Malme-3M) | GI50 (CAKI-1) | GI50 (OVCAR-4) | GI50 (COLO 205) | GI50 (MDA-N) | GI50 (BT-549) |
| --- | --- | --- | --- | --- | --- | --- | --- | --- | --- | --- | --- | --- | --- | --- | --- | --- | --- | --- | --- |
| COc1cc(C2C3C=CC=C4CC=CC(=C43)C3CCC(=O)N32)cc(OC)c1OC (stereo unspecified) | > 100 µM (inactive) | > 100 µM (inactive) | > 100 µM (inactive) | > 100 µM (inactive) | > 100 | > 100 µM (inactive) | > 100 µM (inactive) | > 100 µM (inactive) | > 100 µM (inactive) | > 100 µM (inactive) | > 100 µM (inactive) | 85.9 µM (inactive) | – | – | – | – | – | – | – |
| Sc1nnc(COc2ccc(Cl)cc2)n1-c1ccccc1 | > 100 µM (inactive) | > 100 µM (inactive) | > 100 µM (inactive) | > 100 µM (inactive) | > 100 | > 100 µM (inactive) | > 100 µM (inactive) | > 100 µM (inactive) | > 100 µM (inactive) | 95.7 µM (inactive) | > 100 µM (inactive) | > 100 µM (inactive) | > 100 µM (inactive) | > 100 µM (inactive) | 17.5 µM (inactive) | > 100 µM (inactive) | 88.1 µM (inactive) | > 100 µM (inactive) | – |
| CN1c2ccccc2NC(CC(=O)O)C2CC=CN21 (stereo unspecified) | > 100 µM (inactive) | > 100 µM (inactive) | > 100 µM (inactive) | > 100 µM (inactive) | > 100 | > 100 µM (inactive) | > 100 µM (inactive) | > 100 µM (inactive) | > 100 µM (inactive) | > 100 µM (inactive) | – | > 100 µM (inactive) | – | > 100 µM (inactive) | > 100 µM (inactive) | > 100 µM (inactive) | > 100 µM (inactive) | – | – |
| CN(C)c1ccc(/C=C2\C[C@H]3[C@@H]4CCc5cc(O)ccc5[C@H]4CC[C@]3(C)C2=O)cc1 | 23.4 µM (inactive) | 35.6 µM (inactive) | 28.9 µM (inactive) | 36 µM (inactive) | > 100 | 98.2 µM (inactive) | > 100 µM (inactive) | 32.5 µM (inactive) | 30.5 µM (inactive) | > 100 µM (inactive) | > 100 µM (inactive) | 61.5 µM (inactive) | > 100 µM (inactive) | > 100 µM (inactive) | > 100 µM (inactive) | > 100 µM (inactive) | 64.7 µM (inactive) | > 100 µM (inactive) | – |
| O=C1Nc2ccccc2/C1=N/NC(=S)Nc1cccc(Cl)c1 | 7 µM (inactive) | 22 µM (inactive) | – | 10.8 µM (inactive) | 7.64 | 4.03 µM (inactive) | 5.52 µM (inactive) | 10.3 µM (inactive) | 10.9 µM (inactive) | 4.7 µM (inactive) | 17.7 µM (inactive) | 18.7 µM (inactive) | 66.4 µM (inactive) | 19.9 µM (inactive) | 8.3 µM (inactive) | 4.33 µM (inactive) | 8.93 µM (inactive) | 27.9 µM (inactive) | – |
| COc1cc2c(c(OC)c1OC)-c1ccc(SC)cc1C(O)CC2 (stereo unspecified) | < 0.01 µM (active) | > 100 µM (inactive) | < 0.01 µM (active) | – | < 0.01 | 12.1 µM (inactive) | < 0.01 µM (active) | 2.54 µM (inactive) | – | < 0.01 µM (active) | < 0.01 µM (active) | > 100 µM (inactive) | < 0.01 µM (active) | 0.0132 µM (active) | 0.071 µM (active) | 1.94 µM (inactive) | < 0.01 µM (active) | 0.19 µM (active) | – |
| COc1ccc2nc(-c3ccc(OC(=O)N(C)C)cc3)cn2c1 | – | > 100 µM (inactive) | > 100 µM (inactive) | > 100 µM (inactive) | – | > 100 µM (inactive) | 36 µM (inactive) | > 100 µM (inactive) | > 100 µM (inactive) | 39 µM (inactive) | > 100 µM (inactive) | > 100 µM (inactive) | > 100 µM (inactive) | > 100 µM (inactive) | > 100 µM (inactive) | > 100 µM (inactive) | 41.4 µM (inactive) | > 100 µM (inactive) | – |
| O=C1Nc2ccc(Br)cc2/C1=C/C(=O)c1ccccc1 | 6.08 µM (inactive) | 16 µM (inactive) | 17.3 µM (inactive) | 17.9 µM (inactive) | 2.49 | 18.6 µM (inactive) | 18.2 µM (inactive) | 14.5 µM (inactive) | 22.7 µM (inactive) | 5.57 µM (inactive) | 16.2 µM (inactive) | 4.13 µM (inactive) | 15.1 µM (inactive) | 6.37 µM (inactive) | 7.74 µM (inactive) | 13.7 µM (inactive) | 2.11 µM (inactive) | – | 8.59 µM (inactive) |
| C#CC(C)(C)Oc1cc(OC)c2c(=O)c3ccccc3n(C)c2c1 | 26.1 µM (inactive) | 16.3 µM (inactive) | 24.8 µM (inactive) | 30.3 µM (inactive) | 10.9 | – | 13.5 µM (inactive) | 20.9 µM (inactive) | 27 µM (inactive) | 10.7 µM (inactive) | 11 µM (inactive) | – | 30.7 µM (inactive) | – | – | 7.8 µM (inactive) | 14.8 µM (inactive) | 12.6 µM (inactive) | – |
| CCOC(=O)C(C)N1C(=O)c2ccccc2S1(=O)=O (stereo unspecified) | > 100 µM (inactive) | > 100 µM (inactive) | > 100 µM (inactive) | > 100 µM (inactive) | > 100 | > 100 µM (inactive) | > 100 µM (inactive) | > 100 µM (inactive) | > 100 µM (inactive) | > 100 µM (inactive) | – | > 100 µM (inactive) | > 100 µM (inactive) | > 100 µM (inactive) | > 100 µM (inactive) | > 100 µM (inactive) | > 100 µM (inactive) | – | – |
| [N-]=[N+]=Nc1ccccc1-[n+]1noc([O-])c1Br | > 100 µM (inactive) | > 100 µM (inactive) | > 100 µM (inactive) | > 100 µM (inactive) | > 100 | – | > 100 µM (inactive) | > 100 µM (inactive) | > 100 µM (inactive) | > 100 µM (inactive) | – | > 100 µM (inactive) | – | > 100 µM (inactive) | > 100 µM (inactive) | > 100 µM (inactive) | > 100 µM (inactive) | – | – |
| C1CCC(OC2CSC2)OC1 (stereo unspecified) | – | – | > 100 µM (inactive) | > 100 µM (inactive) | > 100 | > 100 µM (inactive) | > 100 µM (inactive) | – | – | > 100 µM (inactive) | > 100 µM (inactive) | > 100 µM (inactive) | > 100 µM (inactive) | – | – | > 100 µM (inactive) | > 100 µM (inactive) | > 100 µM (inactive) | – |
| O=C(CSCC(=O)N/N=C\c1ccc(-c2ccccc2)cc1)N/N=C\c1ccc(-c2ccccc2)cc1 | 19.4 µM (inactive) | 16 µM (inactive) | 16.3 µM (inactive) | 17.7 µM (inactive) | 26.1 | – | 30.9 µM (inactive) | 45.2 µM (inactive) | 23 µM (inactive) | 25.8 µM (inactive) | 18.8 µM (inactive) | 45.6 µM (inactive) | – | 27.2 µM (inactive) | 40.5 µM (inactive) | 20.7 µM (inactive) | 13.6 µM (inactive) | – | 20.8 µM (inactive) |
| O=C(Cc1ccccc1)N[C@@H]1COC(=O)[C@@H]2CCCN2C(=O)[C@@H]2CCCN2C1=O (PhAc-[dS]-Pro-Pro; ester 1-C) | > 100 µM (inactive) | > 100 µM (inactive) | 0.0254 µM (active) | – | > 100 | > 100 µM (inactive) | > 100 µM (inactive) | > 100 µM (inactive) | > 100 µM (inactive) | – | > 100 µM (inactive) | > 100 µM (inactive) | > 100 µM (inactive) | > 100 µM (inactive) | > 100 µM (inactive) | > 100 µM (inactive) | > 100 µM (inactive) | > 100 µM (inactive) | – |
| CC1=C/C(=N\NS(=O)(=O)c2ccc([N+](=O)[O-])cc2)CC(C)(C)C1 | > 100 µM (inactive) | > 100 µM (inactive) | – | 97.1 µM (inactive) | 49.8 | > 100 µM (inactive) | 51.6 µM (inactive) | > 100 µM (inactive) | > 100 µM (inactive) | 62.1 µM (inactive) | > 100 µM (inactive) | 10.4 µM (inactive) | > 100 µM (inactive) | > 100 µM (inactive) | > 100 µM (inactive) | – | > 100 µM (inactive) | > 100 µM (inactive) | – |
| CCCC(=O)OC[n+]1ccc(-c2c(COC(=O)NC(C)C)c(COC(=O)NC(C)C)c3n2CCC3)cc1 | 28.1 µM (inactive) | > 100 µM (inactive) | 87.3 µM (inactive) | > 100 µM (inactive) | > 100 | 39.7 µM (inactive) | 76.4 µM (inactive) | > 100 µM (inactive) | 84.1 µM (inactive) | > 100 µM (inactive) | > 100 µM (inactive) | > 100 µM (inactive) | > 100 µM (inactive) | > 100 µM (inactive) | 21.8 µM (inactive) | > 100 µM (inactive) | > 100 µM (inactive) | – | > 100 µM (inactive) |
| CC1=C(C)Cc2c(O)ccc(O)c2C1 | 20 µM (inactive) | – | 16.2 µM (inactive) | 16.6 µM (inactive) | 17.5 | 83.9 µM (inactive) | 43.7 µM (inactive) | 14.5 µM (inactive) | 21.5 µM (inactive) | 18.8 µM (inactive) | 16.8 µM (inactive) | 19.7 µM (inactive) | – | 17.5 µM (inactive) | 18.2 µM (inactive) | – | 20.4 µM (inactive) | 17 µM (inactive) | – |
| CC(C)NC(=O)OCc1c(COC(=O)NC(C)C)c(-c2cc[n+](COC(=O)CC(C)(C)C)cc2)n2c1CCC2 | > 100 µM (inactive) | – | – | > 100 µM (inactive) | > 100 | > 100 µM (inactive) | – | > 100 µM (inactive) | > 100 µM (inactive) | > 100 µM (inactive) | – | > 100 µM (inactive) | > 100 µM (inactive) | – | > 100 µM (inactive) | > 100 µM (inactive) | > 100 µM (inactive) | > 100 µM (inactive) | > 100 µM (inactive) |
